Experiments:
Test in all cases: KinaseProfiler kinase assay
Type in all cases: biochemical
PDGFRα(D842V)(h) = PDGFRα(D842V)(h) (Homo sapiens, UniProt P16234, D842V)
In short: (§1)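 Compounds were serially diluted from DMSO into 20 mM MOPS buffer with EDTA, Brij-35, glycerol, β-mercaptoethanol and 1 mg/mL BSA. Reactions started with MgATP/[γ-33P]ATP, ran 40 min at room temperature, and phosphorylation was measured by scintillation counting after filtermat capture.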

IR(h) = IR(h) (Homo sapiens, UniProt P06213)
In short: as §1

IRAK4(h) = IRAK4(h) (Homo sapiens, UniProt Q9NWZ3)
In short: as §1

CDK3/cyclinE(h) = CDK3/cyclinE(h) (Homo sapiens, UniProt Q00526)
CDK3/cyclinE(h), sequence (Q00526 whole entry): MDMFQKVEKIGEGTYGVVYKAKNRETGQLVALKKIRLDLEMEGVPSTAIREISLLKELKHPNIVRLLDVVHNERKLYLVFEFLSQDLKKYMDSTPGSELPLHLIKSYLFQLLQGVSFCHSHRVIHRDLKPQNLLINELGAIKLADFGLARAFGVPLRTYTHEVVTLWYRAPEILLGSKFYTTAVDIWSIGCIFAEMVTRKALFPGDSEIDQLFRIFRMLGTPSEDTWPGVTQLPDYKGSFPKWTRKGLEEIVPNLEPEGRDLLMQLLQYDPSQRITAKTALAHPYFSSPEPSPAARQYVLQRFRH
CDK3/cyclinE(h), sequence (P24864 whole entry partner): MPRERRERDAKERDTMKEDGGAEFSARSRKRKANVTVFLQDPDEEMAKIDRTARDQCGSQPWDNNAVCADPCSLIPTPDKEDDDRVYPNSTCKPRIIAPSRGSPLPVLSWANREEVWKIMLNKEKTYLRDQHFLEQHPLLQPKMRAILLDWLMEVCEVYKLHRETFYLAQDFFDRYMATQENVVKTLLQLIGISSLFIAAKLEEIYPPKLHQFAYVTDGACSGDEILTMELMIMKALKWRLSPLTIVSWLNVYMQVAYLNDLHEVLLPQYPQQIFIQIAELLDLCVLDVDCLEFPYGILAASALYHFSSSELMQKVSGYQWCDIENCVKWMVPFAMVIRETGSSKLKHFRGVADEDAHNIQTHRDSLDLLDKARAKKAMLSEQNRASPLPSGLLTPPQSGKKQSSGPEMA
In short: as §1

Met(M1268T)(h) = Met(M1268T)(h) (Homo sapiens, UniProt P08581, M1250T)
In short: as §1

cKit(D816V)(h) = cKit(D816V)(h) (Homo sapiens, UniProt P10721, D816V)
In short: as §1

SAPK4(h) = SAPK4(h) (Homo sapiens, UniProt O15264)
In short: as §1

Blk(h) = Blk(h) (Homo sapiens, UniProt P51451)
In short: as §1

MAPKAP-K3(h) = MAPKAP-K3(h) (Homo sapiens, UniProt Q16644)
In short: as §1

EGFR(T790M)(h) = EGFR(T790M)(h) (Homo sapiens, UniProt P00533, T790M)
In short: as §1

WNK2(h) = WNK2(h) (Homo sapiens, UniProt Q9Y3S1)
In short: as §1

Arg(h) = Arg(h) (Homo sapiens, UniProt P42684)
In short: as §1

CLK3(h) = CLK3(h) (Homo sapiens, UniProt P49761)
CLK3(h), sequence (P49761 whole entry): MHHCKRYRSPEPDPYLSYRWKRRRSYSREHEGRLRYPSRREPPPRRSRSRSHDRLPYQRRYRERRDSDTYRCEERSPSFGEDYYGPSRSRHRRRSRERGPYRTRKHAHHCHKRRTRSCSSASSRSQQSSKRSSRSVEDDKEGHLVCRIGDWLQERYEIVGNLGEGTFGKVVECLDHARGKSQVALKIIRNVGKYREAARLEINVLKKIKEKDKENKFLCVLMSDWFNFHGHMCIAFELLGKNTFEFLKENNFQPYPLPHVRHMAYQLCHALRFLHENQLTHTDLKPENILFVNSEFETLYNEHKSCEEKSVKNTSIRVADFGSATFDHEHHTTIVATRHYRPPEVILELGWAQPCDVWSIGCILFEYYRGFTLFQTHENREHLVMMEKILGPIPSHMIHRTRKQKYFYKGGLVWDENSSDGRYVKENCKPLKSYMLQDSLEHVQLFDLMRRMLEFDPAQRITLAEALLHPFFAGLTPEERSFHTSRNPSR
In short: as §1

MSK1(h) = MSK1(h) (Homo sapiens, UniProt O75582)
In short: as §1

GRK5(h) = GRK5(h) (Homo sapiens, UniProt P34947)
In short: as §1

DDR2(h) = DDR2(h) (Homo sapiens, UniProt Q16832)
In short: as §1

Txk(h) = Txk(h) (Homo sapiens, UniProt P42681)
In short: as §1

TBK1(h) = TBK1(h) (Homo sapiens, UniProt Q9UHD2)
In short: as §1

CSK(h) = CSK(h) (Homo sapiens, UniProt P41240)
In short: as §1

ALK(h) = ALK(h) (Homo sapiens, UniProt Q9UM73)
In short: as §1

IKKα(h) = IKKα(h) (Homo sapiens, UniProt O15111)
IKKα(h), sequence (O15111 whole entry): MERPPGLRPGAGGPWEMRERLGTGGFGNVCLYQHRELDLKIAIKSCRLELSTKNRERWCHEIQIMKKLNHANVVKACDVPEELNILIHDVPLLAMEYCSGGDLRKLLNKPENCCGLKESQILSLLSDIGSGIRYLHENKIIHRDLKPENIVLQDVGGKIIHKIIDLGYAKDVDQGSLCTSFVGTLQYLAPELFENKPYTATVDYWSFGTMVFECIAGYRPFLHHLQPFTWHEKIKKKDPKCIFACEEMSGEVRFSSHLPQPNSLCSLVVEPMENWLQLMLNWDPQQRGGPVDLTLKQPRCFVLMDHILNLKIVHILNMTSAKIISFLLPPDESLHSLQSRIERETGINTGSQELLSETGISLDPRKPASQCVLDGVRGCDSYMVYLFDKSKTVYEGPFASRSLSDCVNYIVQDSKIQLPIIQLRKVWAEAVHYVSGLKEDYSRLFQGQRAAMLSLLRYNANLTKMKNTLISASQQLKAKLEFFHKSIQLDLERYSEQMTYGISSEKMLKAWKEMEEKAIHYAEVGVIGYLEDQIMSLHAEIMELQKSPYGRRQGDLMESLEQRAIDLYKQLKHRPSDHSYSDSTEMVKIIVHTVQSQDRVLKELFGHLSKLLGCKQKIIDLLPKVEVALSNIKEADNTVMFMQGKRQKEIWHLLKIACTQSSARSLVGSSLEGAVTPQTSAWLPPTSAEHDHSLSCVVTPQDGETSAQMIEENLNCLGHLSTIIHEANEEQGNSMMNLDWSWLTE
In short: as §1

PRAK(h) = PRAK(h) (Homo sapiens, UniProt Q8IW41)
In short: as §1

JAK3(h) = JAK3(h) (Homo sapiens, UniProt P52333)
In short: as §1

[1] = target: PI3 Kinase (p110β/p85α)(m) (Mus musculus, UniProt Q8BTI9)
In short: as §1

PKA(h) = PKA(h) (Homo sapiens, UniProt P17612)
In short: as §1

Rsk1(h) = Rsk1(h) (Homo sapiens, UniProt Q15418)
In short: as §1

Aurora-C(h) = Aurora-C(h) (Homo sapiens, UniProt Q9UQB9)
In short: as §1

JAK2(h) = JAK2(h) (Homo sapiens, UniProt O60674)
JAK2(h), sequence (O60674 whole entry): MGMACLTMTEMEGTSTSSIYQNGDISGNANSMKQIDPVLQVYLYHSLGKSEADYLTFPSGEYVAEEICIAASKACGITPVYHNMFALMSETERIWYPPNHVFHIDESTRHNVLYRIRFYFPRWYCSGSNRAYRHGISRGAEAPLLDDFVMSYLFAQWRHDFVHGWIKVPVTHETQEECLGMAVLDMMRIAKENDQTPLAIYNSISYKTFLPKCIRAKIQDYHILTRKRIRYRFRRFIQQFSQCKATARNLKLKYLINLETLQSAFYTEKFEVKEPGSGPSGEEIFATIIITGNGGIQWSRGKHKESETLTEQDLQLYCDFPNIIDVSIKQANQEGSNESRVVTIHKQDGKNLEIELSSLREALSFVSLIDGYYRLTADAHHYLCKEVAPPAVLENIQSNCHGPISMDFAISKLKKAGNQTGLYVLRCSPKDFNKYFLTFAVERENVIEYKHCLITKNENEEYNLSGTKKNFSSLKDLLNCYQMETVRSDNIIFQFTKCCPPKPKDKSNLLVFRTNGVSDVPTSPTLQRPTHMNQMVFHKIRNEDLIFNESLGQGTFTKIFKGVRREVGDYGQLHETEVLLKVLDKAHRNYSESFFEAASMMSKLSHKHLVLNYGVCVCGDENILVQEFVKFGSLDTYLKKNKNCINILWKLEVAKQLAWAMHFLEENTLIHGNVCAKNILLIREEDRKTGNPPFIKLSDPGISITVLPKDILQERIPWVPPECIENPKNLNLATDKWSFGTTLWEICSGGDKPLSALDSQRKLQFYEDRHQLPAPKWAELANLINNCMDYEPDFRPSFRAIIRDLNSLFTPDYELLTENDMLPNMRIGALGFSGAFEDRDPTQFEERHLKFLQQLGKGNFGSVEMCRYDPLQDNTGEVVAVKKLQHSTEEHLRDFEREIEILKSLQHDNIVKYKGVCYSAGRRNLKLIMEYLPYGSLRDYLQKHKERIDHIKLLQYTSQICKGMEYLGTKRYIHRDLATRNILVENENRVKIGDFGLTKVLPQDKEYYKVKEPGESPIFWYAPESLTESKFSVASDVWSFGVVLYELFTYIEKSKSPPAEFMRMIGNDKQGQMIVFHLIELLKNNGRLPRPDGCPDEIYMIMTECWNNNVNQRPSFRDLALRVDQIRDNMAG
In short: as §1

LKB1(h) = LKB1(h) (Homo sapiens, UniProt Q15831)
In short: as §1

EphA2(h) = EphA2(h) (Homo sapiens, UniProt P29317)
In short: as §1

TSSK1(h) = TSSK1(h) (Homo sapiens, UniProt Q9BXA7)
TSSK1(h), sequence (Q9BXA7 whole entry): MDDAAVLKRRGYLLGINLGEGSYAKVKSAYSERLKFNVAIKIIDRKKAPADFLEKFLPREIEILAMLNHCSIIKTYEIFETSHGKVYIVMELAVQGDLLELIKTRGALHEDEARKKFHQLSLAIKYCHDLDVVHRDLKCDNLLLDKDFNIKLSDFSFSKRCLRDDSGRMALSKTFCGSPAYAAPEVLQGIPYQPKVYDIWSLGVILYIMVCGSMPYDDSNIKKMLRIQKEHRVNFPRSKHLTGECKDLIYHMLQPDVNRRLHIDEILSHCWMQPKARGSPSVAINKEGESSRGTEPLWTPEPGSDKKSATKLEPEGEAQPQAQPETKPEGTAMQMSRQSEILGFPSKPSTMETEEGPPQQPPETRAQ
In short: as §1

PI3KC2γ(h) = PI3KC2γ(h) (Homo sapiens, UniProt O75747)
PI3KC2γ(h), sequence (O75747 whole entry): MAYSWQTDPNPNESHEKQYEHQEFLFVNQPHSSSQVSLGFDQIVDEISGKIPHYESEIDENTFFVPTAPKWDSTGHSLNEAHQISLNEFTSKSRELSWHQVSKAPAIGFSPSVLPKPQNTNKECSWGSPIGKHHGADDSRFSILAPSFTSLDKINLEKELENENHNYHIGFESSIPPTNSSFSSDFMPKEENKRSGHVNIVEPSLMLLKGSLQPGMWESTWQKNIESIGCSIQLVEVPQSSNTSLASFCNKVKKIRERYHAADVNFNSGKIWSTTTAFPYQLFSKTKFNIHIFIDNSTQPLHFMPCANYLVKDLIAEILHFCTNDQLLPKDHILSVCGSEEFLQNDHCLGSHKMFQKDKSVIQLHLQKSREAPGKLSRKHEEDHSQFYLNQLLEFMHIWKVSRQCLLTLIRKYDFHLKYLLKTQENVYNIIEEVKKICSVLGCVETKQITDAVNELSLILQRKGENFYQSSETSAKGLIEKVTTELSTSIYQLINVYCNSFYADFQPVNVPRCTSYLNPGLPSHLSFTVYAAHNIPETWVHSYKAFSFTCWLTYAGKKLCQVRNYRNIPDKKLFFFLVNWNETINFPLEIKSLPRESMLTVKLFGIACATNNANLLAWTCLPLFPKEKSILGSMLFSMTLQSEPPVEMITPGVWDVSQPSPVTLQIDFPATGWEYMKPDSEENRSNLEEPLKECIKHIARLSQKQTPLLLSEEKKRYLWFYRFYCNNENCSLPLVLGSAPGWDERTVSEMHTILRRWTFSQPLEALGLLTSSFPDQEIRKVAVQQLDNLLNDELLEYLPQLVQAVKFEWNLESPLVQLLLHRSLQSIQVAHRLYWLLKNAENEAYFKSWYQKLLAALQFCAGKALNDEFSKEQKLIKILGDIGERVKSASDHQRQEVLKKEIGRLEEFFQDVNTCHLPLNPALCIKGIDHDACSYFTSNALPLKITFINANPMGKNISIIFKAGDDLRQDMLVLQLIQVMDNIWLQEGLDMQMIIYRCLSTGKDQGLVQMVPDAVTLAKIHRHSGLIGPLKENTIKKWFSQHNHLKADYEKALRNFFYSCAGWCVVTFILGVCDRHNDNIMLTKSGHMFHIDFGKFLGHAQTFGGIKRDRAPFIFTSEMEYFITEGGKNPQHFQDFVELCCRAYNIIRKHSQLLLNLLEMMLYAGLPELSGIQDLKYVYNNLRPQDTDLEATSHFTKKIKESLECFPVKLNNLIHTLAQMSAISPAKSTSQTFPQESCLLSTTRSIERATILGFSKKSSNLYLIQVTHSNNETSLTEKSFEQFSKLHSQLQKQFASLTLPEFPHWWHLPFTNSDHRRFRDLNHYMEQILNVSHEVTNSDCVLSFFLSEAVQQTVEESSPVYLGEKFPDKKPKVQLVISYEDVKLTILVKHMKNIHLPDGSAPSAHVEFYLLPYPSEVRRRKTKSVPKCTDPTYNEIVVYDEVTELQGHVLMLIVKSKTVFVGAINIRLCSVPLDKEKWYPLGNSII
In short: as §1

SMILES | inhibition at 0.1 µM (PDGFRα(D842V)(h)) [%] | inhibition at 0.1 µM (IR(h)) [%] | inhibition at 0.1 µM (IRAK4(h)) [%] | inhibition at 0.1 µM (CDK3/cyclinE(h)) [%] | inhibition at 0.1 µM (Met(M1268T)(h)) [%] | inhibition at 0.1 µM (cKit(D816V)(h)) [%] | inhibition at 0.1 µM (SAPK4(h)) [%] | inhibition at 0.1 µM (Blk(h)) [%] | inhibition at 0.1 µM (MAPKAP-K3(h)) [%] | inhibition at 0.1 µM (EGFR(T790M)(h)) [%] | inhibition at 0.1 µM (WNK2(h)) [%] | inhibition at 0.1 µM (Arg(h)) [%] | inhibition at 0.1 µM (CLK3(h)) [%] | inhibition at 0.1 µM (MSK1(h)) [%] | inhibition at 0.1 µM (GRK5(h)) [%] | inhibition at 0.1 µM (DDR2(h)) [%] | inhibition at 0.1 µM (Txk(h)) [%] | inhibition at 0.1 µM (TBK1(h)) [%] | inhibition at 0.1 µM (CSK(h)) [%] | inhibition at 0.1 µM (ALK(h)) [%] | other results
Cc1cc2c(F)c(Oc3nc(Nc4cc(C5CC5)[nH]n4)cc(N4CCN(C)CC4)n3)ccc2[nH]1 [Compound 10] | 73 | 83 | 37 | 0 | 91 | 33 | -13 | 94 | 4 | 17 | -8 | 104 | 16 | 96 | 18 | 80 | 75 | 71 | 12 | 87 | inhibition at 0.1 µM (IKKα(h)): -12%; inhibition at 0.1 µM (PRAK(h)): -24%; inhibition at 0.1 µM (JAK3(h)): 86%; inhibition at 0.1 µM [1]: 0%; inhibition at 0.1 µM (PKA(h)): 2%; inhibition at 0.1 µM (Rsk1(h)): -10%; inhibition at 0.1 µM (Aurora-C(h)): 54%; inhibition at 0.1 µM (JAK2(h)): 92%; inhibition at 0.1 µM (LKB1(h)): 14%; inhibition at 0.1 µM (EphA2(h)): 96%; inhibition at 0.1 µM (TSSK1(h)): 4%; inhibition at 0.1 µM (PI3KC2γ(h)): 27%
Cc1cc2c(F)c(Oc3nc(Nc4cc(C5CC5)[nH]n4)cc(N4CCNCC4)n3)ccc2[nH]1 [Compound 11, N-(5-cyclopropyl-1H-pyrazol-3-yl)-2-((4-fluoro-2-methyl-1H-indol-5-yl)oxy)-6-(piperazin-1-yl)pyrimidin-4-amine] | 70 | 84 | 13 | 33 | 72 | 38 | 3 | 94 | -15 | 30 | -6 | 102 | -14 | 9 | -2 | 83 | 87 | 95 | 5 | 86 | inhibition at 0.1 µM (IKKα(h)): -3%; inhibition at 0.1 µM (PRAK(h)): 6%; inhibition at 0.1 µM (JAK3(h)): 86%; inhibition at 0.1 µM [1]: 1%; inhibition at 0.1 µM (PKA(h)): -12%; inhibition at 0.1 µM (Rsk1(h)): 9%; inhibition at 0.1 µM (Aurora-C(h)): 67%; inhibition at 0.1 µM (JAK2(h)): 99%; inhibition at 0.1 µM (LKB1(h)): -1%; inhibition at 0.1 µM (EphA2(h)): 98%; inhibition at 0.1 µM (TSSK1(h)): 3%; inhibition at 0.1 µM (PI3KC2γ(h)): -2%
